According to patent publication US20050137220A1 (Pharmacia Corporation, priority 2003, published 2005):
Several values for one entry are separate records, joined by “and”; a condition that tells them apart may be missing. Identical values can stand only once. Counter-ions that a name gives are not always drawn. Like-named read-outs stand apart in the source and are kept apart here.

Biological target: MK-2 (Homo sapiens, UniProt P49137)
Assay: Determination of MK-2 IC50 (phosphorylation of HSP-peptide, anion exchange resin capture assay)
Type: biochemical
Settings: mixture of stereoisomers implied unless otherwise noted
[1] = additional values are replicate IC50 experiments, read-out: MK-2 Avg. IC50

MK-2, sequence (P49137 whole entry, species assumed): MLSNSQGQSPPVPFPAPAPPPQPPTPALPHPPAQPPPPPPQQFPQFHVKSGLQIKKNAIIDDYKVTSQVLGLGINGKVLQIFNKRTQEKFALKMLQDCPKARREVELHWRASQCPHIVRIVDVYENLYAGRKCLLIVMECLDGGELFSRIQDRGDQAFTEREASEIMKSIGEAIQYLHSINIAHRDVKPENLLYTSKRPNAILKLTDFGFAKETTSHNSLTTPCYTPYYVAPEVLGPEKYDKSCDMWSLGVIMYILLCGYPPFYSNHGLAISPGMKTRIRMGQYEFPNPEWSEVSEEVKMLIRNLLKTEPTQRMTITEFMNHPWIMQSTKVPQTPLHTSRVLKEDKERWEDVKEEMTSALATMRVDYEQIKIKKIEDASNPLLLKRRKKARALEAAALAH

In the case of COc1ccc2[nH]c3c(c2c1)CCC(C)(C)C3=NO (mixture of isomers) [Example 272, 6-methoxy-2,2-dimethyl-2,3,4,9-tetrahydro-1H-carbazol-1-one oxime], the IC50 [1] is reported as > 200 µM.
With COC(=O)[C@@H]1Cc2c([nH]c3ccccc23)C(C)(C(=O)O)N1 (mixture of isomers) [Example 228, 3-(methoxycarbonyl)-1-methyl-2,3,4,9-tetrahydro-1H-beta-carboline-1-carboxylic acid] the IC50 [1] was > 200 µM.
CN1CCc2c([nH]c3ccc(OCc4ccccc4)cc23)C1C(=O)O (stereo not drawn) [Example 36, sodium 6-(benzyloxy)-2-methyl-2,3,4,9-tetrahydro-1H-beta-carboline-1-carboxylate] was tested, and the IC50 [1] was 4.83 µM and 4.96 µM.
For COc1ccc2[nH]c3c(c2c1)CC(CCCO)NC3=O (stereo not drawn) [Example 81, 3-(3-hydroxypropyl)-6-methoxy-2,3,4,9-tetrahydro-1H-beta-carbolin-1-one], the IC50 [1] was 20.4 µM.
Work on O=C(O)C1NCCc2c1[nH]c1ccc(OCCc3ccccc3)cc21 (stereo not drawn) [Example 87, 6-(2-phenylethoxy)-2,3,4,9-tetrahydro-1H-beta-carboline-1-carboxylic acid hydrochloride] yielded an IC50 [1] of 27.9 µM.
With COc1ccc2[nH]c3c(=O)[nH]ccc3c2c1 [Example 95, 6-methoxy-2,9-dihydro-1H-beta-carbolin-1-one] the IC50 [1] was 31.8 µM.
Molecule CCOC(=O)c1cccc2c3c([nH]c12)CCNC3=O [Example 96, ethyl 1-oxo-2,3,4,5-tetrahydro-1H-pyrido[4,3-b]indole-6-carboxylate] has an IC50 [1] of 34.5 µM.
Work on COc1ccc2[nH]c3c(c2c1)CCNC3=S [Example 97, 6-methoxy-2,3,4,9-tetrahydro-1H-beta-carboline-1-thione] yielded an IC50 (MK-2 Avg. IC50, additional values are replicate IC50 experiments) of 34.8 µM.
For O=C(O)COc1ccc2[nH]c3c(c2c1)CCNC3C(=O)O (stereo not drawn) [Example 98, 6-(carboxymethoxy)-2,3,4,9-tetrahydro-1H-beta-carbolin-1-carboxylic acid], the IC50 [1] was 35.5 µM.
Molecule COC(=O)c1cccc2c3c([nH]c12)CCCC3=O [Example 100, methyl 4-oxo-2,3,4,9-tetrahydro-1H-carbazole-8-carboxylate] has an IC50 [1] of 39.8 µM.
In the case of O=C(O)C1NCCc2c1[nH]c1ccc(OCc3ccccn3)cc21 (stereo not drawn) [Example 101, 6-(pyridin-2-ylmethoxy)-2,3,4,9-tetrahydro-1H-beta-carboline-1-carboxylic acid hydrochloride], the IC50 [1] is reported as 39.9 µM.
In the case of O=C(O)C1NCCc2c1[nH]c1ccc(OCc3cccnc3)cc21 (stereo not drawn) [Example 102, 6-(pyridin-3-ylmethoxy)-2,3,4,9-tetrahydro-1H-beta-carboline-1-carboxylic acid hydrochloride], the IC50 [1] is reported as 42.6 µM.
Work on CS(=O)(=O)c1ccc(COc2ccc3[nH]c4c(c3c2)CCNC4C(=O)O)cc1 (stereo not drawn) [Example 104, 6-{[4-(methylsulfonyl)benzyl]oxy}-2,3,4,9-tetrahydro-1H-beta-carboline-1-carboxylic acid hydrochloride] yielded an IC50 [1] of 44.9 µM.
For NNC(=O)c1ccc2[nH]c3c(c2c1)CCNC3C(=O)O (stereo not drawn) [Example 107, 6-(hydrazinocarbonyl)-2,3,4,9-tetrahydro-1H-beta-carboline-1-carboxylic acid], the IC50 [1] was 48.6 µM.
O=C1NCCc2c1[nH]c1ccc(O)cc21 [Example 108, 6-hydroxy-2,3,4,9-tetrahydro-1H-beta-carbolin-1-one] gave an IC50 [1] of 48.9 µM.
Work on O/N=C1\CCCc2c1[nH]c1ccccc21 [Example 109, 2,3,4,9-tetrahydro-1H-carbazol-1-one oxime] yielded an IC50 [1] of 49.9 µM.
CCOC(=O)c1ccc2c3c([nH]c2c1)CCNC3=O [Example 110, ethyl 1-oxo-2,3,4,5-tetrahydro-1H-pyrido[4,3-b]indole-7-carboxylate] gave an IC50 [1] of 50.1 µM.
O=C(O)C1c2c(c3ccccc3n2Cc2ccccc2)CCN1Cc1cccc(C(F)(F)F)c1 (stereo not drawn) [Example 112, 1H-Pyrido[3,4-b]indole-1-carboxylic acid, 2,3,4,9-tetrahydro-9-(phenylmethyl)-2-[[3-(trifluoromethyl)phenyl]methyl]- or 9-benzyl-2-[3-(trifluoromethyl)benzyl]-2,3,4,9-tetrahydro-1H-beta-carboline-1-carboxylic acid] gave an IC50 [1] of 53.7 µM.
Molecule COc1ccc2[nH]c3c(c2c1)C(Cc1ccc(CO)cc1)CNC3C(=O)O (stereo not drawn) [Example 114, 4-[4-(hydroxymethyl)benzyl]-6-methoxy-2,3,4,9-tetrahydro-1H-beta-carboline-1-carboxylic acid] has an IC50 [1] of 61.4 µM.
COc1ccc2[nH]c3c(c2c1)CC(CC#N)NC3=O (stereo not drawn) [Example 116, (6-methoxy-1-oxo-2,3,4,9-tetrahydro-1H-beta-carbolin-3-yl)acetontrile] showed an IC50 [1] of 68.7 µM.
O=C1NCCc2c1[nH]c1ccc(Br)cc21 [Example 117, 6-bromo-2,3,4,9-tetrahydro-1H-beta-carbolin-1-one] was tested, and the IC50 [1] was 69.6 µM.
Work on COc1ccc2[nH]c3c(c2c1)C(Cc1cccc(C(F)(F)F)c1)CNC3C(=O)O (stereo not drawn) [Example 118, 6-methoxy-4-[3-(trifluoromethyl)benzyl]-2,3,4,9-tetrahydro-1H-beta-carboline-1-carboxylic acid] yielded an IC50 [1] of 70.9 µM.
For COC(=O)c1ccc(COc2ccc3[nH]c4c(c3c2)CCNC4C(=O)O)cc1 (stereo not drawn) [Example 119, 6-{[4-(methoxycarbonyl)benzyl]oxy}-2,3,4,9-tetrahydro-1H-beta-carboline-1-carboxylic acid hydrochloride], the IC50 [1] was 71.9 µM.
O=C1NCCc2c1[nH]c1ccc(I)cc21 [Example 120, 6-iodo-2,3,4,9-tetrahydro-1H-beta-carbolin-1-one] was tested, and the IC50 [1] was 75.2 µM.
For Cc1ccc2[nH]c3c(c2c1)CCC/C3=N\O [Example 123, 6-methyl-2,3,4,9-tetrahydro-1H-carbazol-1-one oxime], the IC50 [1] was 82.9 µM and 88.1 µM.
In the case of O=C1NCCc2c1[nH]c1ccc(Cl)cc21 [Example 125, 1H-Pyrido[3,4-b]indol-1-one, 6-chloro-2,3,4,9-tetrahydro- or 6-chloro-2,3,4,9-tetrahydro-1H-beta-carbolin-1-one], the IC50 [1] is reported as 89.6 µM.
Molecule O=C(O)C1NCCc2c1[nH]c1ccc(OCc3ccc4ccccc4c3)cc21 (stereo not drawn) [Example 127, 6-(2-naphthylmethoxy)-2,3,4,9-tetrahydro-1H-beta-carboline-1-carboxylic acid hydrochloride] has an IC50 [1] of 91.3 µM.
C=CCN1CCc2c([nH]c3ccc(OC)cc23)C1C(=O)O (stereo not drawn) [Example 128, potassium 2-allyl-6-methoxy-2,3,4,9-tetrahydro-1H-beta-carboline-1-carboxylate] was tested, and the IC50 [1] was 95.1 µM and 98.2 µM.
CCOC(=O)CCCOc1ccc2[nH]c3c(c2c1)CCNC3C(=O)O (stereo not drawn) [Example 130, 6-(4-ethoxy-4-oxobutoxy)-2,3,4,9-tetrahydro-1H-beta-carboline-1-carboxylic acid hydrochloride] was tested, and the IC50 [1] was 100 µM.
Work on COc1cc2[nH]c3c(c2cc1OC)CCCC3=NO [Example 131, 6,7-dimethoxy-2,3,4,9-tetrahydro-1H-carbazol-1-one oxime] yielded an IC50 [1] of 100 µM.
In the case of COc1ccc2[nH]c3c(c2c1)CCC3=NO [Example 132, 7-methoxy-1,4-dihydrocyclopenta[b]indol-3(2H)-one oxime], the IC50 [1] is reported as 104 µM.
Molecule CCOC(=O)c1ccc(COc2ccc3[nH]c4c(c3c2)CCNC4C(=O)O)o1 (stereo not drawn) [Example 133, 6-{[5-(ethoxycarbonyl)-2-furyl]methoxy}-2,3,4,9-tetrahydro-1H-beta-carboline-1-carboxylic acid] has an IC50 [1] of 105 µM.
In the case of COCCOc1ccc2[nH]c3c(c2c1)CCNC3C(=O)O (stereo not drawn) [Example 135, 6-(2-methoxyethoxy)-2,3,4,9-tetrahydro-1H-beta-carboline-1-carboxylic acid], the IC50 [1] is reported as 110 µM.
